Measured values published in the NIST ThermoML archive (doi:10.1021/acs.jced.8b00554).
± gives the expanded uncertainty stated by the source.

Assay: xn = mol fraction of the nth substance listed
Settings: Liquid, Vibrating tube method

## CCCCCCCC [octane] + CCCO
323.15 K, 10010 kPa, x2 = 0.3158
  mass density: 702.83 ± 4.5 kg/m3
323.15 K, 10010 kPa, x2 = 0.4411
  mass density: 711.7 ± 4.6 kg/m3
323.15 K, 10010 kPa, x2 = 0.8823
  mass density: 763.66 ± 4.9 kg/m3
323.15 K, 11000 kPa, x2 = 0.1631
  mass density: 695.13 ± 4.5 kg/m3
323.15 K, 11010 kPa, x2 = 0.2111
  mass density: 697.62 ± 4.5 kg/m3
323.15 K, 11010 kPa, x2 = 0.3158
  mass density: 703.75 ± 4.5 kg/m3
323.15 K, 11010 kPa, x2 = 0.4411
  mass density: 712.61 ± 4.6 kg/m3
323.15 K, 11010 kPa, x2 = 0.7301
  mass density: 741.5 ± 4.8 kg/m3
323.15 K, 11010 kPa, x2 = 0.8823
  mass density: 764.53 ± 4.9 kg/m3
323.15 K, 12000 kPa, x2 = 0.3158
  mass density: 704.66 ± 4.5 kg/m3
323.15 K, 12010 kPa, x2 = 0.7301
  mass density: 742.41 ± 4.8 kg/m3
323.15 K, 12010 kPa, x2 = 0.8823
  mass density: 765.37 ± 4.9 kg/m3
323.15 K, 12020 kPa, x2 = 0.1631
  mass density: 696.03 ± 4.5 kg/m3
323.15 K, 12020 kPa, x2 = 0.2111
  mass density: 698.52 ± 4.5 kg/m3
323.15 K, 12020 kPa, x2 = 0.4411
  mass density: 713.53 ± 4.6 kg/m3
323.15 K, 13000 kPa, x2 = 0.8823
  mass density: 766.25 ± 4.9 kg/m3
323.15 K, 13010 kPa, x2 = 0.2111
  mass density: 699.43 ± 4.5 kg/m3
323.15 K, 13010 kPa, x2 = 0.4411
  mass density: 714.42 ± 4.6 kg/m3
323.15 K, 13010 kPa, x2 = 0.7301
  mass density: 743.29 ± 4.8 kg/m3
323.15 K, 13020 kPa, x2 = 0.1631
  mass density: 696.94 ± 4.5 kg/m3
323.15 K, 13020 kPa, x2 = 0.3158
  mass density: 705.56 ± 4.5 kg/m3
323.15 K, 14010 kPa, x2 = 0.1631
  mass density: 697.82 ± 4.5 kg/m3
323.15 K, 14010 kPa, x2 = 0.2111
  mass density: 700.32 ± 4.5 kg/m3
323.15 K, 14010 kPa, x2 = 0.3158
  mass density: 706.45 ± 4.5 kg/m3
323.15 K, 14010 kPa, x2 = 0.4411
  mass density: 715.31 ± 4.6 kg/m3
323.15 K, 14010 kPa, x2 = 0.8823
  mass density: 767.11 ± 4.9 kg/m3
323.15 K, 14020 kPa, x2 = 0.7301
  mass density: 744.18 ± 4.8 kg/m3
323.15 K, 15000 kPa, x2 = 0.7301
  mass density: 745.04 ± 4.8 kg/m3
323.15 K, 15000 kPa, x2 = 0.8823
  mass density: 767.94 ± 4.9 kg/m3
323.15 K, 15010 kPa, x2 = 0.1631
  mass density: 698.72 ± 4.5 kg/m3
323.15 K, 15010 kPa, x2 = 0.2111
  mass density: 701.21 ± 4.5 kg/m3
323.15 K, 15020 kPa, x2 = 0.3158
  mass density: 707.35 ± 4.5 kg/m3
323.15 K, 15020 kPa, x2 = 0.4411
  mass density: 716.17 ± 4.6 kg/m3
323.15 K, 16000 kPa, x2 = 0.3158
  mass density: 708.22 ± 4.5 kg/m3
323.15 K, 16000 kPa, x2 = 0.7301
  mass density: 745.87 ± 4.8 kg/m3
323.15 K, 16010 kPa, x2 = 0.1631
  mass density: 699.58 ± 4.5 kg/m3
323.15 K, 16010 kPa, x2 = 0.4411
  mass density: 717.04 ± 4.6 kg/m3
323.15 K, 16010 kPa, x2 = 0.8823
  mass density: 768.77 ± 4.9 kg/m3
323.15 K, 16020 kPa, x2 = 0.2111
  mass density: 702.08 ± 4.5 kg/m3
323.15 K, 17000 kPa, x2 = 0.1631
  mass density: 700.41 ± 4.5 kg/m3
323.15 K, 17010 kPa, x2 = 0.2111
  mass density: 702.95 ± 4.5 kg/m3
323.15 K, 17010 kPa, x2 = 0.3158
  mass density: 709.05 ± 4.5 kg/m3
323.15 K, 17010 kPa, x2 = 0.4411
  mass density: 717.88 ± 4.6 kg/m3
323.15 K, 17020 kPa, x2 = 0.7301
  mass density: 746.73 ± 4.8 kg/m3
323.15 K, 17020 kPa, x2 = 0.8823
  mass density: 769.6 ± 4.9 kg/m3
323.15 K, 18000 kPa, x2 = 0.1631
  mass density: 701.27 ± 4.5 kg/m3
323.15 K, 18000 kPa, x2 = 0.2111
  mass density: 703.77 ± 4.5 kg/m3
323.15 K, 18010 kPa, x2 = 0.3158
  mass density: 709.93 ± 4.5 kg/m3
323.15 K, 18010 kPa, x2 = 0.4411
  mass density: 718.73 ± 4.6 kg/m3
323.15 K, 18010 kPa, x2 = 0.7301
  mass density: 747.56 ± 4.8 kg/m3
323.15 K, 18010 kPa, x2 = 0.8823
  mass density: 770.4 ± 4.9 kg/m3
323.15 K, 19010 kPa, x2 = 0.1631
  mass density: 702.08 ± 4.5 kg/m3
323.15 K, 19010 kPa, x2 = 0.2111
  mass density: 704.61 ± 4.5 kg/m3
323.15 K, 19010 kPa, x2 = 0.3158
  mass density: 710.75 ± 4.6 kg/m3
323.15 K, 19010 kPa, x2 = 0.4411
  mass density: 719.58 ± 4.6 kg/m3
323.15 K, 19010 kPa, x2 = 0.7301
  mass density: 748.4 ± 4.8 kg/m3
323.15 K, 19020 kPa, x2 = 0.8823
  mass density: 771.2 ± 4.9 kg/m3
323.15 K, 20010 kPa, x2 = 0.1631
  mass density: 702.9 ± 4.5 kg/m3
323.15 K, 20010 kPa, x2 = 0.2111
  mass density: 705.43 ± 4.5 kg/m3
323.15 K, 20010 kPa, x2 = 0.4411
  mass density: 720.41 ± 4.6 kg/m3
323.15 K, 20010 kPa, x2 = 0.7301
  mass density: 749.2 ± 4.8 kg/m3
323.15 K, 20010 kPa, x2 = 0.8823
  mass density: 772.02 ± 5 kg/m3
323.15 K, 20020 kPa, x2 = 0.3158
  mass density: 711.56 ± 4.6 kg/m3
333.15 K, 100 kPa, x2 = 0.1631
  mass density: 675.2 ± 4.3 kg/m3
333.15 K, 100 kPa, x2 = 0.2111
  mass density: 677.49 ± 4.3 kg/m3
333.15 K, 100 kPa, x2 = 0.3158
  mass density: 683.44 ± 4.4 kg/m3
333.15 K, 100 kPa, x2 = 0.4411
  mass density: 692.56 ± 4.4 kg/m3
333.15 K, 100 kPa, x2 = 0.7301
  mass density: 721.13 ± 4.6 kg/m3
333.15 K, 100 kPa, x2 = 0.8823
  mass density: 744.98 ± 4.8 kg/m3
333.15 K, 1000 kPa, x2 = 0.2111
  mass density: 678.54 ± 4.3 kg/m3
333.15 K, 1000 kPa, x2 = 0.3158
  mass density: 684.58 ± 4.4 kg/m3
333.15 K, 1010 kPa, x2 = 0.1631
  mass density: 676.35 ± 4.3 kg/m3
333.15 K, 1010 kPa, x2 = 0.4411
  mass density: 694.32 ± 4.5 kg/m3
333.15 K, 1010 kPa, x2 = 0.8823
  mass density: 745.82 ± 4.8 kg/m3
333.15 K, 1020 kPa, x2 = 0.7301
  mass density: 722.21 ± 4.6 kg/m3
333.15 K, 2010 kPa, x2 = 0.1631
  mass density: 677.44 ± 4.3 kg/m3
333.15 K, 2010 kPa, x2 = 0.2111
  mass density: 679.63 ± 4.3 kg/m3
333.15 K, 2010 kPa, x2 = 0.3158
  mass density: 685.64 ± 4.4 kg/m3
333.15 K, 2010 kPa, x2 = 0.4411
  mass density: 695.36 ± 4.5 kg/m3
333.15 K, 2010 kPa, x2 = 0.7301
  mass density: 723.26 ± 4.6 kg/m3
333.15 K, 2010 kPa, x2 = 0.8823
  mass density: 746.82 ± 4.8 kg/m3
333.15 K, 3000 kPa, x2 = 0.2111
  mass density: 680.7 ± 4.4 kg/m3
333.15 K, 3000 kPa, x2 = 0.3158
  mass density: 686.7 ± 4.4 kg/m3
333.15 K, 3010 kPa, x2 = 0.1631
  mass density: 678.49 ± 4.3 kg/m3
333.15 K, 3010 kPa, x2 = 0.7301
  mass density: 724.3 ± 4.6 kg/m3
333.15 K, 3020 kPa, x2 = 0.4411
  mass density: 696.43 ± 4.5 kg/m3
333.15 K, 3020 kPa, x2 = 0.8823
  mass density: 747.84 ± 4.8 kg/m3
333.15 K, 4000 kPa, x2 = 0.3158
  mass density: 687.78 ± 4.4 kg/m3
333.15 K, 4000 kPa, x2 = 0.4411
  mass density: 697.47 ± 4.5 kg/m3
333.15 K, 4000 kPa, x2 = 0.7301
  mass density: 725.32 ± 4.7 kg/m3
333.15 K, 4010 kPa, x2 = 0.2111
  mass density: 681.76 ± 4.4 kg/m3
333.15 K, 4010 kPa, x2 = 0.8823
  mass density: 748.84 ± 4.8 kg/m3
333.15 K, 4020 kPa, x2 = 0.1631
  mass density: 679.56 ± 4.3 kg/m3
333.15 K, 5000 kPa, x2 = 0.8823
  mass density: 749.83 ± 4.8 kg/m3
